# From PubChem BioAssay (NCI)
#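 Protocol summary: plate cells (96-well), add compound at 5 concentrations, incubate 48 h, interpolate endpoints linearly. TGI: concentration producing complete growth inhibition.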
# Legend:
# Assay in all cases: NCI-60 cell line screen, 48 h
# UO-31 renal = test system: UO-31 renal
# SK-OV-3 ovarian = test system: SK-OV-3 ovarian
# BT-549 breast = test system: BT-549 breast
# MDA-MB-231 breast = test system: MDA-MB-231 breast
# OVCAR-4 ovarian = test system: OVCAR-4 ovarian
# OVCAR-8 ovarian = test system: OVCAR-8 ovarian
# OVCAR-5 ovarian = test system: OVCAR-5 ovarian
# CAKI-1 renal = test system: CAKI-1 renal
# A498 renal = test system: A498 renal
# HCT-15 colon = test system: HCT-15 colon
# 786-0 renal = test system: 786-0 renal
# NCI-H460 lung = test system: NCI-H460 lung
# MOLT-4 leukemia = test system: MOLT-4 leukemia
# IGROV1 ovarian = test system: IGROV1 ovarian
# EKVX NSCLC = test system: EKVX NSCLC
# HCT-116 colon = test system: HCT-116 colon
# A549 NSCLC = test system: A549 NSCLC
# KM12 colon = test system: KM12 colon
# NCI-H23 lung = test system: NCI-H23 lung
# DU-145 prostate = test system: DU-145 prostate
# MDA-MB-435 = test system: MDA-MB-435
# HCC-2998 colon = test system: HCC-2998 colon
# MALME-3M melanoma = test system: MALME-3M melanoma
# COLO 205 colon = test system: COLO 205 colon
# ACHN renal = test system: ACHN renal
# RXF 393 renal = test system: RXF 393 renal
# LOX IMVI melanoma = test system: LOX IMVI melanoma
# PC-3 prostate = test system: PC-3 prostate
# SW-620 colon = test system: SW-620 colon
# NCI/ADR-RES ovarian = test system: NCI/ADR-RES ovarian
# SF-539 CNS = test system: SF-539 CNS
# OVCAR-3 ovarian = test system: OVCAR-3 ovarian
# UACC-62 melanoma = test system: UACC-62 melanoma
# SNB-75 CNS = test system: SNB-75 CNS
# SNB-19 CNS = test system: SNB-19 CNS
# HS 578T breast = test system: HS 578T breast
# NCI-H522 lung = test system: NCI-H522 lung
# HL-60(TB) leukemia = test system: HL-60(TB) leukemia
# U251 CNS = test system: U251 CNS
# TK-10 renal = test system: TK-10 renal
# SK-MEL-2 melanoma = test system: SK-MEL-2 melanoma
# NCI-H226 lung = test system: NCI-H226 lung
# HOP-62 NSCLC = test system: HOP-62 NSCLC
# CCRF-CEM leukemia = test system: CCRF-CEM leukemia
# SK-MEL-28 melanoma = test system: SK-MEL-28 melanoma
# SR leukemia = test system: SR leukemia
# RPMI-8226 leukemia = test system: RPMI-8226 leukemia
# HOP-92 NSCLC = test system: HOP-92 NSCLC
# UACC-257 melanoma = test system: UACC-257 melanoma
# MCF7 breast = test system: MCF7 breast
# MDA-N = test system: MDA-N
# SF-295 CNS = test system: SF-295 CNS
# T-47D breast = test system: T-47D breast
# K-562 leukemia = test system: K-562 leukemia
# M14 melanoma = test system: M14 melanoma
# HT29 colon = test system: HT29 colon
# SN12C renal = test system: SN12C renal
# SK-MEL-5 melanoma = test system: SK-MEL-5 melanoma
# SF-268 CNS = test system: SF-268 CNS
smiles,measurement,setting,value
COC(=O)C(Cc1ccc2c(c1)CCCC2)Cc1cc2c(cc1C(O)OC)CCC2 (configuration not stated),TGI,UO-31 renal,> 100 µM
same,TGI,SK-OV-3 ovarian,> 100 µM
same,TGI,BT-549 breast,> 100 µM
same,TGI,MDA-MB-231 breast,> 100 µM
same,TGI,OVCAR-4 ovarian,> 100 µM
same,TGI,OVCAR-8 ovarian,> 100 µM
same,TGI,OVCAR-5 ovarian,> 100 µM
same,TGI,CAKI-1 renal,> 100 µM
same,TGI,A498 renal,> 100 µM
same,TGI,HCT-15 colon,> 100 µM
same,TGI,786-0 renal,> 100 µM
same,TGI,NCI-H460 lung,> 100 µM
same,TGI,MOLT-4 leukemia,> 100 µM
same,TGI,IGROV1 ovarian,> 100 µM
same,TGI,EKVX NSCLC,> 100 µM
same,TGI,HCT-116 colon,> 100 µM
same,TGI,A549 NSCLC,> 100 µM
same,TGI,KM12 colon,> 100 µM
same,TGI,NCI-H23 lung,> 100 µM
same,TGI,DU-145 prostate,> 100 µM
same,TGI,MDA-MB-435,> 100 µM
same,TGI,HCC-2998 colon,> 100 µM
same,TGI,MALME-3M melanoma,> 100 µM
same,TGI,COLO 205 colon,> 100 µM
same,TGI,ACHN renal,> 100 µM
same,TGI,RXF 393 renal,67.3 µM
same,TGI,LOX IMVI melanoma,> 100 µM
same,TGI,PC-3 prostate,> 100 µM
same,TGI,SW-620 colon,> 100 µM
same,TGI,NCI/ADR-RES ovarian,> 100 µM
same,TGI,SF-539 CNS,> 100 µM
same,TGI,OVCAR-3 ovarian,> 100 µM
same,TGI,UACC-62 melanoma,> 100 µM
same,TGI,SNB-75 CNS,> 100 µM
same,TGI,SNB-19 CNS,> 100 µM
same,TGI,HS 578T breast,> 100 µM
same,TGI,NCI-H522 lung,> 100 µM
same,TGI,HL-60(TB) leukemia,56.9 µM
same,TGI,U251 CNS,> 100 µM
same,TGI,TK-10 renal,> 100 µM
same,TGI,SK-MEL-2 melanoma,> 100 µM
same,TGI,NCI-H226 lung,> 100 µM
same,TGI,HOP-62 NSCLC,> 100 µM
same,TGI,CCRF-CEM leukemia,> 100 µM
same,TGI,SK-MEL-28 melanoma,> 100 µM
same,TGI,SR leukemia,> 100 µM
same,TGI,RPMI-8226 leukemia,> 100 µM
same,TGI,HOP-92 NSCLC,> 100 µM
same,TGI,UACC-257 melanoma,90.4 µM
same,TGI,MCF7 breast,65.1 µM
same,TGI,MDA-N,> 100 µM
same,TGI,SF-295 CNS,> 100 µM
same,TGI,T-47D breast,> 100 µM
same,TGI,K-562 leukemia,> 100 µM
same,TGI,M14 melanoma,> 100 µM
same,TGI,HT29 colon,> 100 µM
same,TGI,SN12C renal,> 100 µM
same,TGI,SK-MEL-5 melanoma,> 100 µM
same,TGI,SF-268 CNS,> 100 µM
CCOC(=O)/C(SC#N)=C(/N)N1CCCC1,TGI,UO-31 renal,> 100 µM
same,TGI,SK-OV-3 ovarian,> 100 µM
same,TGI,BT-549 breast,> 100 µM
same,TGI,MDA-MB-231 breast,> 100 µM
same,TGI,OVCAR-4 ovarian,> 100 µM
same,TGI,OVCAR-8 ovarian,> 100 µM
same,TGI,OVCAR-5 ovarian,> 100 µM
same,TGI,CAKI-1 renal,> 100 µM
same,TGI,A498 renal,> 100 µM
same,TGI,HCT-15 colon,> 100 µM
same,TGI,786-0 renal,> 100 µM
same,TGI,NCI-H460 lung,> 100 µM
same,TGI,MOLT-4 leukemia,> 100 µM
same,TGI,IGROV1 ovarian,> 100 µM
same,TGI,EKVX NSCLC,> 100 µM
same,TGI,HCT-116 colon,> 100 µM
same,TGI,A549 NSCLC,> 100 µM
same,TGI,KM12 colon,> 100 µM
same,TGI,NCI-H23 lung,> 100 µM
same,TGI,DU-145 prostate,> 100 µM
same,TGI,MDA-MB-435,> 100 µM
same,TGI,HCC-2998 colon,> 100 µM
same,TGI,MALME-3M melanoma,> 100 µM
same,TGI,COLO 205 colon,> 100 µM
same,TGI,ACHN renal,> 100 µM
same,TGI,RXF 393 renal,> 100 µM
same,TGI,LOX IMVI melanoma,> 100 µM
same,TGI,PC-3 prostate,> 100 µM
same,TGI,SW-620 colon,> 100 µM
same,TGI,NCI/ADR-RES ovarian,> 100 µM
same,TGI,SF-539 CNS,> 100 µM
same,TGI,OVCAR-3 ovarian,> 100 µM
same,TGI,UACC-62 melanoma,> 100 µM
same,TGI,SNB-75 CNS,> 100 µM
same,TGI,SNB-19 CNS,> 100 µM
same,TGI,HS 578T breast,> 100 µM
same,TGI,NCI-H522 lung,> 100 µM
same,TGI,HL-60(TB) leukemia,> 100 µM
same,TGI,U251 CNS,> 100 µM
same,TGI,TK-10 renal,> 100 µM
same,TGI,SK-MEL-2 melanoma,> 100 µM
same,TGI,NCI-H226 lung,> 100 µM
same,TGI,HOP-62 NSCLC,> 100 µM
same,TGI,CCRF-CEM leukemia,> 100 µM
same,TGI,SK-MEL-28 melanoma,> 100 µM
same,TGI,SR leukemia,> 100 µM
same,TGI,RPMI-8226 leukemia,> 100 µM
same,TGI,HOP-92 NSCLC,> 100 µM
same,TGI,UACC-257 melanoma,> 100 µM
same,TGI,MCF7 breast,> 100 µM
same,TGI,MDA-N,> 100 µM
same,TGI,SF-295 CNS,> 100 µM
same,TGI,T-47D breast,> 100 µM
same,TGI,K-562 leukemia,> 100 µM
same,TGI,M14 melanoma,> 100 µM
same,TGI,HT29 colon,> 100 µM
same,TGI,SN12C renal,> 100 µM
same,TGI,SK-MEL-5 melanoma,> 100 µM
same,TGI,SF-268 CNS,> 100 µM
CC(C)CSCC1OC(n2cnc3c(N)nccc32)C(O)C1O (configuration not stated),TGI,UO-31 renal,> 100 µM
same,TGI,SK-OV-3 ovarian,> 100 µM
same,TGI,BT-549 breast,> 100 µM
same,TGI,MDA-MB-231 breast,> 100 µM
same,TGI,OVCAR-4 ovarian,> 100 µM
same,TGI,OVCAR-8 ovarian,> 100 µM
same,TGI,OVCAR-5 ovarian,> 100 µM
same,TGI,CAKI-1 renal,> 100 µM
same,TGI,A498 renal,> 100 µM
same,TGI,HCT-15 colon,> 100 µM
same,TGI,786-0 renal,> 100 µM
same,TGI,NCI-H460 lung,> 100 µM
same,TGI,MOLT-4 leukemia,> 100 µM
same,TGI,IGROV1 ovarian,> 100 µM
same,TGI,EKVX NSCLC,> 100 µM
same,TGI,HCT-116 colon,> 100 µM
same,TGI,A549 NSCLC,> 100 µM
same,TGI,KM12 colon,> 100 µM
same,TGI,NCI-H23 lung,> 100 µM
same,TGI,DU-145 prostate,> 100 µM
same,TGI,MDA-MB-435,> 100 µM
same,TGI,HCC-2998 colon,> 100 µM
same,TGI,MALME-3M melanoma,> 100 µM
same,TGI,COLO 205 colon,> 100 µM
same,TGI,ACHN renal,> 100 µM
same,TGI,RXF 393 renal,> 100 µM
same,TGI,LOX IMVI melanoma,> 100 µM
same,TGI,PC-3 prostate,> 100 µM
same,TGI,SW-620 colon,> 100 µM
same,TGI,NCI/ADR-RES ovarian,> 100 µM
same,TGI,SF-539 CNS,> 100 µM
same,TGI,OVCAR-3 ovarian,> 100 µM
same,TGI,UACC-62 melanoma,> 100 µM
same,TGI,SNB-75 CNS,> 100 µM
same,TGI,SNB-19 CNS,> 100 µM
same,TGI,HS 578T breast,> 100 µM
same,TGI,NCI-H522 lung,> 100 µM
same,TGI,HL-60(TB) leukemia,> 100 µM
same,TGI,U251 CNS,> 100 µM
same,TGI,TK-10 renal,> 100 µM
same,TGI,SK-MEL-2 melanoma,> 100 µM
same,TGI,NCI-H226 lung,> 100 µM
same,TGI,HOP-62 NSCLC,> 100 µM
same,TGI,CCRF-CEM leukemia,> 100 µM
same,TGI,SK-MEL-28 melanoma,> 100 µM
same,TGI,SR leukemia,> 100 µM
same,TGI,RPMI-8226 leukemia,> 100 µM
same,TGI,HOP-92 NSCLC,> 100 µM
same,TGI,UACC-257 melanoma,> 100 µM
same,TGI,MCF7 breast,> 100 µM
same,TGI,MDA-N,> 100 µM
same,TGI,SF-295 CNS,> 100 µM
same,TGI,T-47D breast,> 100 µM
same,TGI,K-562 leukemia,> 100 µM
same,TGI,M14 melanoma,> 100 µM
same,TGI,HT29 colon,> 100 µM
same,TGI,SN12C renal,> 100 µM
same,TGI,SK-MEL-5 melanoma,> 100 µM
same,TGI,SF-268 CNS,> 100 µM
